The subject of one data set is IOP in the rabbit eye. Kind of data set: Intraocular pressure (IOP) pharmacodynamics in normotensive rabbit, tonometer. In kind it is in vivo, New Zealand White rabbits. The conditions noted are these: for IOP decrease, treated eye: within 1 hour.
The nature of data set [1]: Intrastromal delivery of bevacizumab from coated microneedles into rabbit cornea in vivo (ELISA). For orientation: An ELISA detects its analyte on a solid surface through an enzyme-linked reagent.
Data set [2] deals with corneal neovascularization. Kind of data set: Suture-induced corneal neovascularization model, neovascularization area by image analysis. It is filed as in vivo, New Zealand rabbits. The conditions noted are these: for average neovascularization area lower compared to no treatment group: MN-1bolus: intrastromal 1.1 μg, single microneedle; for reduction of neovascularization compared to untreated eye: SC-high: subconjunctival injection 2500 μg bolus on day 4. Here is the method:
All animal studies adhered to the ARVO statement for the Use of Animals in Ophthalmic and Vision Research and were approved by the Georgia Institute of Technology Institutional Animal Care and Use Committee (IACUC). Male and female New Zealand rabbits (2.2-2.5 kg) were anesthetized with ketamine (17 mg/kg), xylazine (8.5 mg/kg) and acepromazine (0.5 mg/kg) subcutaneously. Following topical administration of 0.5% proparacaine hydrochloride to minimize discomfort, a single 7.0-gauge silk suture (Ethicon TG140, Blue Ash, Ohio) was placed at midstromal depth 1 mm away from the limbus of the rabbit cornea to generate corneal neovascularization associated with minor traumatic injury. This silk suture was left in the rabbit cornea for the duration of the experiment to induce neovascularization. For each animal, a suture was placed in one eye and the companion eye was left untreated.
During the experiment, the rabbit eye was imaged using a digital camera (Cannon Rebel Tli, Melvile, N.Y.) with macroscopic lens (Cannon MP-E 65 mm) at 3× magnification every two days after placement of the suture. The area of neovascularization was quantified using Adobe Photoshop (Adobe, Jan Jose, Calif.).
Prior to all treatment procedures except for topical delivery, rabbits were anesthetized with ketamine (6 mg/kg), xylazine (4 mg/kg) and acepromazine (0.25 mg/kg) subcutaneously. A reduced dose of anesthesic compared to the suture insertion procedure was used to reduce possible stress to the animals. A single drop of topical proparacaine ophthalmic solution was given as anesthesia. The duration of each study was 18 days and, after the suture insertion at the beginning of the experiment, 4 days were allowed for neovascularization to develop. All the treatments were done on day 4 except as indicated below.
The high-dose group (SC-high) received 2500 μg of bevacuzumab (in 100 μL, i.e., Avastin). The low-dose group (SC-low) received 4.4 μg of bevacuzumab (Avastin was diluted with HBSS to 100 μL).

The test system of another data set is rabbit cornea. The experiment in a line: Safety of intrastromal delivery: corneal surface inspection and histology. In kind it is in vivo. An excerpt: To identify possible microanatomical changes after intrastromal delivery using microneedles, we conducted a histological safety study using four study groups: (i) The untreated group received no suture and no other treatments. (ii) The suture-only group received a suture at day 0, but no other treatments. (iii). The suture with non-coated microneedles group received a suture on day 0 and four non-coated microneedles inserted at the site of the suture on day 4. […] Animals were sacrificed on days 1, 6, 10 and/or 18 for histological analysis. Suture placement and microneedle application were carried out as described above. High magnification images were taken every day in all study groups to assess possible gross corneal damage. Corneal tissues were fixed in 10% formalin and embedded in paraffin. Hematoxylin-eosin (HE) or periodic acid-Schiff (PAS) staining was performed.
The rabbit corneas with and without microneedle treatment and with and without suture placement were evaluated to assess the safety of microneedle insertion by both magnified inspection of the corneal surface in vivo and histological examination of tissue sections obtained at various times after microneedle treatment Immediately after insertion and removal of the microneedle, a small puncture in the corneal epithelium was evident with a size on the order of 200 μm (data not shown). […]

For brimonidine tartrate, the “supraciliary dose for similar pharmacodynamic response, fold less than topical delivery (AUCPD)” value in the data set with IOP in the rabbit eye (brimonidine, topical 75 μg vs supraciliary) came out at 115 fold. Besides, the “time for IOP to return to normal” value in the data set on IOP in the rabbit eye (single topical drop 75 μg) was at most 6 h. Further, in the data set with IOP in the rabbit eye (single topical drop 75 μg, at 2 hours), the “peak IOP reduction, treated eye” value is reported as “approximately 4 mmHg”. The “IOP changes in treated and contralateral eyes” value in the data set on IOP in the rabbit eye (supraciliary 0.015 μg in 10 μL) is listed as “no significant IOP changes”. Further, the “persistence of IOP drop” value in the data set with IOP in the rabbit eye (supraciliary 0.75 μg in 10 μL) was “about 5 hours”. The “peak IOP drop, treated eye” value in the data set with IOP in the rabbit eye (supraciliary 0.75 μg in 10 μL, at 2 hours) is reported as around 3 mmHg. For the same compound, in the data set with IOP in the rabbit eye (supraciliary 1.5 μg in 10 μL), the “persistence of IOP decrease” value is reported as “about 9 hours” and the “IOP decrease, treated eye” value is on record as around 3.3 mmHg.
`CC(C)OC(=O)CCC/C=C\C[C@@H]1[C@@H](CC[C@@H](O)CCc2ccccc2)[C@H](O)C[C@@H]1O` [latanoprost]: in the data set on IOP in the rabbit eye (standard human dose of 2.5 μg, rabbit model), the “change in IOP” value is recorded as “no change in IOP was observed”.
For `CS(=O)(=O)NC(=O)CCC/C=C\C[C@H]1C(=O)C[C@@H](O)[C@@H]1/C=C/[C@@H](O)COc1ccccc1` [sulprostone, Sulprostone], in the data set with IOP in the rabbit eye (single topical eye drop 2.5 μg), the “duration of ocular hypotension, treated eye” value was “about 8 hours”. The “maximum IOP decrease, treated eye” value with IOP in the rabbit eye (single topical eye drop 2.5 μg, at approximately 2 hours) is around 3.4 mmHg. Also, the “ratio of topical to supraciliary dose for similar pharmacodynamic response (AUCPD comparison)” value in the data set on IOP in the rabbit eye (sulprostone, topical 2.5 μg vs supraciliary, Equation (2)) turned out to be 101. In the data set on IOP in the rabbit eye (supraciliary 0.005 μg in 10 μL), the “persistence of ocular hypotension, treated eye” value is recorded as “approximately 6 hours”. Besides, the “peak IOP drop, treated eye” value in the data set on IOP in the rabbit eye (supraciliary 0.005 μg in 10 μL, at 1 hour) was around 2.8 mmHg. Also, in the data set with IOP in the rabbit eye (supraciliary 0.025 μg in 10 μL), the “persistence of IOP decrease” value was “at least 9 hours” and the “IOP decrease, treated eye” value was around 3.1 mmHg.
In the case of `FC(F)OC(Cl)C(F)(F)F` (stereo not shown) [isoflurane], the “time for effects on IOP to reverse” value in the data set with IOP in the rabbit eye (after inhalation stopped) was in the range of 15 to 30 min. In the data set with IOP in the rabbit eye (during 15 min inhalation of escalating dose), this compound gave an IOP elevation of around 5 mmHg.
For Bevacizumab, the “coated bevacizumab delivered into the cornea” value in data set [1] (coated microneedles, 10 dip coats, inserted 60 sec, rabbit cornea in vivo) is on record as 52%. Further, the “amount of bevacizumab delivered per microneedle” value in data set [1] (microneedles coated with 20 dips) stood at 1.14 ± 0.11 µg. The “average neovascularization area lower compared to no treatment group” value in data set [2] (day 4, day 10) was 34%; in data set [2] (day 4, day 18) it was 10%. The “reduction of neovascularization area” value in data set [2] (MN-1bolusx3: intrastromal 1.1 μg on days 4, 6 and 8 (total 3.3 μg), day 10) stood at 50%. In data set [2] (MN-4bolus: intrastromal 4.4 μg, four coated microneedles, day 4, day 10), the “reduction of neovascularization area compared to untreated eyes” value was determined as 65%. The “reduction of neovascularization compared to untreated eyes” value is listed as 74% in data set [2] (MN-hollow: intrastromal 50 μg (2 μL of 25 μg/μL) by hollow microneedle, day 4, day 10) and 6% in data set [2] (TOP: topical eye drops 3 per day from day 4, total 52,500 μg, day 18). The “reduction of neovascularization compared to untreated eye” value is on record as 62% in data set [2] (day 10) and 29% in data set [2] (day 18). Besides, the “effect on neovascularization compared to untreated eyes” value in data set [2] (SC-low: subconjunctival injection 4.4 μg bolus on day 4) was “no significant effect”. For the same compound, the “corneal histology, sutured eyes with versus without microneedle treatment” value in the data set with rabbit cornea (1.1 μg bevacizumab by microneedle four days after suture) is recorded as “no notable differences”. In the data set on rabbit cornea (magnified inspection in vivo, daily over 18 days), the “corneal surface after treatment with bevacizumab-coated microneedles” value is “only a microscopic puncture in the corneal epithelium that disappeared within one day and was not associated with any complications”.
